# Assay results reported in ChEMBL document CHEMBL1201862, “PubChem BioAssay data set” (2004).
#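 In this assay, cells in 96-well plates receive the compound at five concentrations for 48 hours. Endpoints are linearly interpolated between the surrounding concentrations. Here, GI50 denotes the concentration required for 50% inhibition of growth.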 The source made the active and inactive calls. No stated cut-off is given here; in the data, active = GI50 up to about 1.1 µM and inactive = higher.
# Tests used:
# Assay in all cases: NCI anticancer screen, dose series, 48 h
# 786-0 = test system: 786-0
# A498 = test system: A498
# A549 = test system: A549
# ACHN = test system: ACHN
# CAKI-1 = test system: CAKI-1
# CCRF-CEM = test system: CCRF-CEM
# COLO 205 = test system: COLO 205
# DLD-1 = test system: DLD-1
# DMS-114 = test system: DMS-114
# DMS-273 = test system: DMS-273
# EKVX = test system: EKVX
# HCC 2998 = test system: HCC 2998
# HCT-116 = test system: HCT-116
# HCT-15 = test system: HCT-15
# HL-60 = test system: HL-60
# HOP-62 = test system: HOP-62
# HT-29 = test system: HT-29
# IGROV-1 = test system: IGROV-1
# K562 = test system: K562
# KM-20L2 = test system: KM-20L2
# KM12 = test system: KM12
# LOX IMVI = test system: LOX IMVI
# LXFL 529 = test system: LXFL 529
# M14 = test system: M14
# M19-MEL = test system: M19-MEL
# MOLT-4 = test system: MOLT-4
# Malme-3M = test system: Malme-3M
# NCI-H226 = test system: NCI-H226
# NCI-H23 = test system: NCI-H23
# NCI-H460 = test system: NCI-H460
# NCI-H522 = test system: NCI-H522
# OVCAR-3 = test system: OVCAR-3
# OVCAR-4 = test system: OVCAR-4
# OVCAR-5 = test system: OVCAR-5
# OVCAR-8 = test system: OVCAR-8
# RXF 393 = test system: RXF 393
# RXF 631 = test system: RXF 631
# SF-268 = test system: SF-268
# SF-295 = test system: SF-295
# SF-539 = test system: SF-539
# SK-MEL-2 = test system: SK-MEL-2
# SK-MEL-5 = test system: SK-MEL-5
# SK-OV-3 = test system: SK-OV-3
# SN12C = test system: SN12C
# SNB-19 = test system: SNB-19
# SNB-75 = test system: SNB-75
# SNB-78 = test system: SNB-78
# SR = test system: SR
# SW-620 = test system: SW-620
# TK-10 = test system: TK-10
# U-251 = test system: U-251
# UACC-257 = test system: UACC-257
# UACC-62 = test system: UACC-62
# UO-31 = test system: UO-31
# XF498 = test system: XF498
# HOP-18 = test system: HOP-18
# HOP-92 = test system: HOP-92
# RPMI-8226 = test system: RPMI-8226
# SK-MEL-28 = test system: SK-MEL-28
structure (smiles),measurement,setting,value
Cc1[nH]c2ccccc2c1C1Cc2ccccc2N1C(=O)/C=C/C(=O)O (centres undefined),GI50,786-0,> 100 µM (inactive)
same,GI50,A498,> 100 µM (inactive)
same,GI50,A549,> 100 µM (inactive)
same,GI50,ACHN,> 100 µM (inactive)
same,GI50,CAKI-1,> 100 µM (inactive)
same,GI50,CCRF-CEM,> 100 µM (inactive)
same,GI50,COLO 205,> 100 µM (inactive)
same,GI50,DLD-1,> 100 µM (inactive)
same,GI50,DMS-114,> 100 µM (inactive)
same,GI50,DMS-273,> 100 µM (inactive)
same,GI50,EKVX,> 100 µM (inactive)
same,GI50,HCC 2998,> 100 µM (inactive)
same,GI50,HCT-116,> 100 µM (inactive)
same,GI50,HCT-15,16.1 µM
same,GI50,HL-60,> 100 µM (inactive)
same,GI50,HOP-62,> 100 µM (inactive)
same,GI50,HT-29,> 100 µM (inactive)
same,GI50,IGROV-1,> 100 µM (inactive)
same,GI50,K562,> 100 µM (inactive)
same,GI50,KM-20L2,> 100 µM (inactive)
same,GI50,KM12,> 100 µM (inactive)
same,GI50,LOX IMVI,> 100 µM (inactive)
same,GI50,LXFL 529,> 100 µM (inactive)
same,GI50,M14,> 100 µM (inactive)
same,GI50,M19-MEL,> 100 µM (inactive)
same,GI50,MOLT-4,> 100 µM (inactive)
same,GI50,Malme-3M,> 100 µM (inactive)
same,GI50,NCI-H226,> 100 µM (inactive)
same,GI50,NCI-H23,> 100 µM (inactive)
same,GI50,NCI-H460,20 µM (inactive)
same,GI50,NCI-H522,> 100 µM (inactive)
same,GI50,OVCAR-3,> 100 µM (inactive)
same,GI50,OVCAR-4,> 100 µM (inactive)
same,GI50,OVCAR-5,> 100 µM (inactive)
same,GI50,OVCAR-8,> 100 µM (inactive)
same,GI50,RXF 393,> 100 µM (inactive)
same,GI50,RXF 631,18.4 µM (inactive)
same,GI50,SF-268,> 100 µM (inactive)
same,GI50,SF-295,> 100 µM (inactive)
same,GI50,SF-539,> 100 µM (inactive)
same,GI50,SK-MEL-2,> 100 µM (inactive)
same,GI50,SK-MEL-5,> 100 µM (inactive)
same,GI50,SK-OV-3,> 100 µM (inactive)
same,GI50,SN12C,> 100 µM (inactive)
same,GI50,SNB-19,> 100 µM (inactive)
same,GI50,SNB-75,> 100 µM (inactive)
same,GI50,SNB-78,> 100 µM (inactive)
same,GI50,SR,> 100 µM (inactive)
same,GI50,SW-620,> 100 µM (inactive)
same,GI50,TK-10,> 100 µM (inactive)
same,GI50,U-251,> 100 µM (inactive)
same,GI50,UACC-257,> 100 µM (inactive)
same,GI50,UACC-62,> 100 µM (inactive)
same,GI50,UO-31,> 100 µM (inactive)
same,GI50,XF498,32.4 µM (inactive)
OC1c2ccccc2C2C(O)c3ccccc3C12 (centres undefined),GI50,786-0,> 100 µM (inactive)
same,GI50,A549,> 100 µM (inactive)
same,GI50,ACHN,> 100 µM (inactive)
same,GI50,CAKI-1,> 100 µM (inactive)
same,GI50,CCRF-CEM,> 100 µM (inactive)
same,GI50,COLO 205,> 100 µM (inactive)
same,GI50,DLD-1,> 100 µM (inactive)
same,GI50,DMS-114,> 100 µM (inactive)
same,GI50,DMS-273,> 100 µM (inactive)
same,GI50,EKVX,> 100 µM (inactive)
same,GI50,HCC 2998,> 100 µM (inactive)
same,GI50,HCT-15,> 100 µM
same,GI50,HL-60,> 100 µM (inactive)
same,GI50,HOP-18,> 100 µM (inactive)
same,GI50,HOP-62,> 100 µM (inactive)
same,GI50,HOP-92,> 100 µM (inactive)
same,GI50,HT-29,> 100 µM (inactive)
same,GI50,IGROV-1,> 100 µM (inactive)
same,GI50,K562,> 100 µM (inactive)
same,GI50,KM-20L2,> 100 µM (inactive)
same,GI50,KM12,> 100 µM (inactive)
same,GI50,LOX IMVI,> 100 µM (inactive)
same,GI50,LXFL 529,> 100 µM (inactive)
same,GI50,M14,> 100 µM (inactive)
same,GI50,M19-MEL,> 100 µM (inactive)
same,GI50,MOLT-4,> 100 µM (inactive)
same,GI50,Malme-3M,> 100 µM (inactive)
same,GI50,NCI-H23,> 100 µM (inactive)
same,GI50,NCI-H460,> 100 µM (inactive)
same,GI50,NCI-H522,> 100 µM (inactive)
same,GI50,OVCAR-3,> 100 µM (inactive)
same,GI50,OVCAR-4,> 100 µM (inactive)
same,GI50,OVCAR-5,> 100 µM (inactive)
same,GI50,OVCAR-8,> 100 µM (inactive)
same,GI50,RPMI-8226,> 100 µM (inactive)
same,GI50,RXF 393,> 100 µM (inactive)
same,GI50,RXF 631,> 100 µM (inactive)
same,GI50,SF-268,> 100 µM (inactive)
same,GI50,SF-295,> 100 µM (inactive)
same,GI50,SF-539,> 100 µM (inactive)
same,GI50,SK-MEL-28,> 100 µM (inactive)
same,GI50,SK-MEL-2,> 100 µM (inactive)
same,GI50,SK-MEL-5,> 100 µM (inactive)
same,GI50,SK-OV-3,> 100 µM (inactive)
same,GI50,SN12C,> 100 µM (inactive)
same,GI50,SNB-75,89.5 µM (inactive)
same,GI50,SW-620,> 100 µM (inactive)
same,GI50,TK-10,> 100 µM (inactive)
same,GI50,U-251,> 100 µM (inactive)
same,GI50,UACC-257,> 100 µM (inactive)
same,GI50,UACC-62,> 100 µM (inactive)
same,GI50,UO-31,> 100 µM (inactive)
O=C(Nc1cccc2c1[nH]c1c(-c3ccccc3)nccc12)c1ccccc1[N+](=O)[O-],GI50,A498,7.76 µM (inactive)
same,GI50,A549,24.4 µM (inactive)
same,GI50,ACHN,20.9 µM (inactive)
same,GI50,CAKI-1,18.8 µM (inactive)
same,GI50,CCRF-CEM,21.9 µM (inactive)
same,GI50,COLO 205,26.2 µM (inactive)
same,GI50,DMS-273,4.88 µM (inactive)
same,GI50,EKVX,50.9 µM (inactive)
same,GI50,HCC 2998,18.6 µM (inactive)
same,GI50,HCT-116,26.4 µM (inactive)
same,GI50,HCT-15,7.36 µM
same,GI50,HL-60,26.2 µM (inactive)
same,GI50,HOP-18,> 100 µM (inactive)
same,GI50,HOP-92,2.81 µM (inactive)
same,GI50,HT-29,8.71 µM (inactive)
same,GI50,IGROV-1,54.5 µM (inactive)
same,GI50,K562,21.9 µM (inactive)
same,GI50,KM-20L2,11.2 µM (inactive)
same,GI50,KM12,9.55 µM (inactive)
same,GI50,LOX IMVI,24.5 µM (inactive)
same,GI50,LXFL 529,25.5 µM (inactive)
same,GI50,M14,34.1 µM (inactive)
same,GI50,MOLT-4,12.9 µM (inactive)
same,GI50,Malme-3M,> 100 µM (inactive)
same,GI50,NCI-H226,3.74 µM (inactive)
same,GI50,NCI-H23,34.7 µM (inactive)
same,GI50,NCI-H460,18.6 µM (inactive)
same,GI50,OVCAR-4,38.9 µM (inactive)
same,GI50,OVCAR-5,18.6 µM (inactive)
same,GI50,OVCAR-8,24.8 µM (inactive)
same,GI50,RPMI-8226,30.7 µM (inactive)
same,GI50,RXF 393,12.6 µM (inactive)
same,GI50,RXF 631,17.9 µM (inactive)
same,GI50,SF-268,27.9 µM (inactive)
same,GI50,SF-295,7.13 µM (inactive)
same,GI50,SF-539,20.2 µM (inactive)
same,GI50,SK-MEL-28,49.5 µM (inactive)
same,GI50,SK-MEL-2,54.7 µM (inactive)
same,GI50,SN12C,49.1 µM (inactive)
same,GI50,SNB-19,59.8 µM (inactive)
same,GI50,SNB-75,29.7 µM (inactive)
same,GI50,SNB-78,30.7 µM (inactive)
same,GI50,SR,12.5 µM (inactive)
same,GI50,SW-620,41.2 µM (inactive)
same,GI50,TK-10,33 µM (inactive)
same,GI50,U-251,34.2 µM (inactive)
same,GI50,UACC-257,74.6 µM (inactive)
